Reference: patent US12128038B2, “Method of treatment of organic acidemias and other mitochondria defects or deficiencies” (University of Pittsburgh-Of the Commonwealth System of …, priority 2020, dated 2024)

What was measured:
Format in all cases: cell-based, human
[1] = tested on: PA (859) fibroblast cell line; experiment: Mitochondrial respiration (oxygen consumption rate), Seahorse XFe96 Extracellular Flux Analyzer; details: PA cells, treatment for 24 h, Seahorse OCR
Description: (§1) Cells Culture and Treatments: Fibroblast from a healthy control (826) and a PA patient (859) were grown in DMEM with glucose supplemented with 10% FBS, and 4 mM glutamine. Control and PA cells were treated either with JP4-039, CLP, or DMSO (vehicle control) for 24 h and then harvested for analysis.
Measurement of Mitochondria Respiration: Oxygen consumption rate (OCR) was measured with a Seahorse XFe96 Extracellular Flux Analyzer, Seahorse Bioscience, Billerica, MA.
FIG. 3. Effect of JP4-039 and CLP on basal respiration of control (826) and PA (859) fibroblast cell line. Data shown here are means±SEM and are normalized to protein amount mean value. ****P<0.0001 and ***P<0.001 compared between the groups shown using unpaired t test for samples from a single biological replicate and 8 technical replicates.

[2] = tested on: PA patient (859) fibroblasts; experiment: Mitochondrial superoxide production by MitoSOX Red assay (flow cytometry); details: PA cells, treatment for 24 h
Description: as §1
Mitochondrial Superoxide production and Mitochondrial Mass: 150,000 Cells were incubated with MitoSOX Red (5 μM) and MitoTracker Green (150 nM) for 20 min at 37° C. and then analyzed by FACSAriall Flow cytometer.
FIG. 2. Superoxide levels detected by MitoSOX Red assay (A, B and C) and Mitochondrial mass detected by MitoTracker Green (D, E and F) in PA and healthy control cells with and without treatment for 24 h (A, B and C). Data shown here are means±SD and are normalized to WT mean value. ****P<0.0001, ***P<0.001, **P<0.01, *P<0.05 compared between the groups shown using unpaired t test for samples from a single biological replicate and minimum of at least three technical replicates.

[3] = tested on: cells from patients with inborn errors of energy metabolism; experiment: Cellular bioenergetics and reactive oxygen on incubation with antioxidants

SMILES: O=C(O)CCC(=O)O [succinate]
- basal respiration [1]: reduced
- superoxide level [2]: reduced

SMILES: O=C(O)CC(O)(CC(=O)O)C(=O)O [citrate]
- basal respiration [1]: reduced
- superoxide level [2]: reduced

SMILES: CC(C)C[C@@H](/C=C/[C@H](Cc1ccccc1)C(=O)N1CCC[C@H]1C(=O)N[C@H](C(=O)N[C@@H](CCCNC(=O)OCc1ccccc1)C(=O)NC1CC(C)(C)N([O])C(C)(C)C1)C(C)C)NC(=O)OC(C)(C)C [XJB-5-131]
- cellular bioenergetics [3]: improve
- reactive oxygen [3]: improve
